Holding throughout (format): in vivo
Assay [1] relates to Beet Armyworm (Spodoptera exigua, LAPHEG). The assay can be described thus: Bioassay on Beet Armyworm (BAW), 128-well diet tray assay. The conditions noted are these: Beet Armyworm, 128-well diet tray assay, read-out: BAW rating. The procedure, abridged:
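Diet tray, 8 wells/compound; 50 μg/cm^2 applied to diet surface (90:10 acetone-water), dried. 1–5 L2 larvae/well; 25° C., 14:10 L:D, 5–7 d. Read-out: % mortality, mean of 8 wells.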

The subject of assay [2] is Cabbage Looper (Trichoplusia ni, TRIPNI). The assay can be described thus: Bioassay on Cabbage Looper (CL), 128-well diet tray assay. The note with it: Trichoplusia ni; Cabbage Looper, 128-well diet tray assay; read-out: CL rating. The procedure, abridged: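 Test molecule is dissolved in 90:10 acetone-water and applied at 50 μg/cm^2 onto artificial diet, then dried. One to five second-instar larvae go into each of eight wells. Trays, sealed but vented, stay at 25° C., 14:10 light-dark, five to seven days, after which mortality is averaged.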

For assay [3], the system named is Yellow Fever Mosquito (Aedes aegypti, AEDSAE). As to the kind of experiment: Bioassay on Yellow Fever Mosquito (YFM), 96-well plate larval assay. The note with it: Yellow Fever Mosquito, 96-well plate larval assay. The procedure, abridged:
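Compound stocks at 4000 ppm in DMSO were diluted with 90:10 water/acetone, and 15 μL aliquots were dispensed into six replicate plates. About 1-day-old larvae in liver-powder water were added per well. Plates were covered and held at room temperature for 3 days before each well was scored for mortality.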

This note sets out measurements from patent US10219516B2, “Molecules having pesticidal utility, and intermediates, compositions, and processes, related thereto” (priority 2015, dated 2019).

Regarding `Nc1cc(F)cc(F)c1NC(=O)c1cc(NC(=O)[C@H]2[C@H](c3ccc(F)c(Cl)c3)C2(Cl)Cl)ccc1Cl` [F409, N-(2-Amino-4,6-difluorophenyl)-2-chloro-5-((1R,3R)-2,2-dichloro-3-(3-chloro-4-fluorophenyl)cyclopropane-1-carboxamido)benzamide], the pest or weed control at 50 µg/cm2 in assay [1] and in assay [2] was 50 to 100% throughout. The YFM rating result in assay [3] is on record as “A (80-100)”.

With `O=C(Nc1cc(F)cc([N+](=O)[O-])c1)c1cc(NC(=O)[C@H]2[C@H](c3cc(Cl)c(Cl)c(Cl)c3)C2(Cl)Cl)ccc1Cl` [F417, 2-Chloro-5-((1R,3R)-2,2-dichloro-3-(3,4,5-trichlorophenyl)cyclopropane-1-carboxamido)-N-(3-fluoro-5-nitrophenyl)benzamide], the pest or weed control at 50 µg/cm2 in assay [1] and in assay [2] was 50 to 100% each time. For the same compound, in assay [3], the YFM rating result is given as “A (80-100)”.

`O=C(Nc1cc(F)cc([N+](=O)[O-])c1)c1cc(NC(=O)[C@H]2[C@H](c3ccc(F)c(Cl)c3)C2(Cl)Cl)ccc1Cl` [F418, 2-Chloro-5-((1R,3R)-2,2-dichloro-3-(3-chloro-4-fluorophenyl)cyclopropane-1-carboxamido)-N-(3-fluoro-5-nitrophenyl)benzamide]: the pest or weed control at 50 µg/cm2 in assay [1] and in assay [2] was 50 to 100% each time. Besides, in assay [3], the YFM rating entry is recorded as “A (80-100)”.

In the case of `Nc1cc(F)cc(NC(=O)c2cc(NC(=O)[C@H]3[C@H](c4cc(Cl)cc(Cl)c4)C3(Cl)Cl)ccc2Cl)c1` [F419, N-(3-Amino-5-fluorophenyl)-2-chloro-5-((1R,3R)-2,2-dichloro-3-(3,5-dichlorophenyl)cyclopropane-1-carboxamido)benzamide], the pest or weed control at 50 µg/cm2 in assay [1] and in assay [2] was 50 to 100% in each case. Further, the YFM rating entry in assay [3] is “B (More than 0-Less than 80)”.

Turning to `Nc1c(F)cc(F)cc1NC(=O)c1cc(NC(=O)[C@H]2[C@H](c3ccc(F)c(Cl)c3)C2(Cl)Cl)ccc1Cl` [F420, N-(2-Amino-3,5-difluorophenyl)-2-chloro-5-((1R,3R)-2,2-dichloro-3-(3-chloro-4-fluorophenyl)cyclopropane-1-carboxamido)benzamide], the pest or weed control at 50 µg/cm2 in assay [1] and in assay [2] was 50 to 100% in each case. For the same compound, the YFM rating result in assay [3] is “A (80-100)”.

Take `Nc1ccc(F)cc1NC(=O)c1cc(NC(=O)[C@H]2[C@H](c3ccc(F)c(Cl)c3)C2(Cl)Cl)ccc1Cl` [F421, N-(2-Amino-5-fluorophenyl)-2-chloro-5-((1R,3R)-2,2-dichloro-3-(3-chloro-4-fluorophenyl)cyclopropane-1-carboxamido)benzamide]: the pest or weed control at 50 µg/cm2 in assay [1] and in assay [2] was 50 to 100% throughout. In addition, the YFM rating result in assay [3] is reported as “A (80-100)”.

For `Nc1cccc(NC(=O)c2cc(NC(=O)[C@H]3[C@H](c4cc(Cl)cc(Cl)c4)C3(Cl)Cl)ccc2Cl)c1F` [F426, N-(3-Amino-2-fluorophenyl)-2-chloro-5-((1R,3R)-2,2-dichloro-3-(3,5-dichlorophenyl)cyclopropane-1-carboxamido)benzamide], the pest or weed control at 50 µg/cm2 in assay [1] and in assay [2] was 50 to 100% in each case. The YFM rating entry in assay [3] is “A (80-100)”.

For `Nc1ccc(F)c(NC(=O)c2cc(NC(=O)[C@H]3[C@H](c4cc(Cl)cc(Cl)c4)C3(Cl)Cl)ccc2Cl)c1` [F427, N-(5-Amino-2-fluorophenyl)-2-chloro-5-((1R,3R)-2,2-dichloro-3-(3,5-dichlorophenyl)cyclopropane-1-carboxamido)benzamide], the pest or weed control at 50 µg/cm2 in assay [1] and in assay [2] was 50 to 100% in each case. Moreover, in assay [3], the YFM rating result is listed as “A (80-100)”.

In the case of `Nc1ccc(F)c(NC(=O)c2cc(NC(=O)[C@H]3[C@H](c4ccc(Cl)c(Cl)c4)C3(Cl)Cl)ccc2Cl)c1` [F428, N-(5-Amino-2-fluorophenyl)-2-chloro-5-((1R,3R)-2,2-dichloro-3-(3,4-dichlorophenyl)cyclopropane-1-carboxamido)benzamide], the pest or weed control at 50 µg/cm2 in assay [1] and in assay [2] was 50 to 100% throughout. For the same compound, the YFM rating entry in assay [3] is listed as “A (80-100)”.

Regarding `Nc1ccc(F)c(NC(=O)c2cc(NC(=O)[C@H]3[C@H](c4cc(Cl)c(Cl)c(Cl)c4)C3(Cl)Cl)ccc2Cl)c1` [F429, N-(5-Amino-2-fluorophenyl)-2-chloro-5-((1R,3R)-2,2-dichloro-3-(3,4,5-trichlorophenyl)cyclopropane-1-carboxamido)benzamide], the pest or weed control at 50 µg/cm2 in assay [1] and in assay [2] was 50 to 100% throughout. Further, the YFM rating entry in assay [3] is reported as “A (80-100)”.

Consider `Nc1ccc(F)c(NC(=O)c2cc(NC(=O)[C@H]3[C@H](c4ccc(F)c(Cl)c4)C3(Cl)Cl)ccc2Cl)c1` [F430, N-(5-Amino-2-fluorophenyl)-2-chloro-5-((1R,3R)-2,2-dichloro-3-(3-chloro-4-fluorophenyl)cyclopropane-1-carboxamido)benzamide], for which the pest or weed control at 50 µg/cm2 in assay [1] and in assay [2] was 50 to 100% throughout. Moreover, in assay [3], the YFM rating result is recorded as “A (80-100)”.

For `Nc1cc(F)cc(NC(=O)c2cc(NC(=O)[C@H]3[C@H](c4ccc(Cl)c(Cl)c4)C3(Cl)Cl)ccc2Cl)c1` [F431, N-(3-Amino-5-fluorophenyl)-2-chloro-5-((1R,3R)-2,2-dichloro-3-(3,4-dichlorophenyl)cyclopropane-1-carboxamido)benzamide], the pest or weed control at 50 µg/cm2 in assay [1] and in assay [2] was 50 to 100% in each case. For the same compound, in assay [3], the YFM rating entry was “A (80-100)”.

Take `Nc1cc(F)cc(NC(=O)c2cc(NC(=O)[C@H]3[C@H](c4cc(Cl)c(Cl)c(Cl)c4)C3(Cl)Cl)ccc2Cl)c1` [F432, N-(3-Amino-5-fluorophenyl)-2-chloro-5-((1R,3R)-2,2-dichloro-3-(3,4,5-trichlorophenyl)cyclopropane-1-carboxamido)benzamide]: the pest or weed control at 50 µg/cm2 in assay [1] and in assay [2] was 50 to 100% each time. Also, the YFM rating result in assay [3] is “A (80-100)”.

`Nc1cc(F)cc(NC(=O)c2cc(NC(=O)[C@H]3[C@H](c4ccc(F)c(Cl)c4)C3(Cl)Cl)ccc2Cl)c1` [F433, N-(3-Amino-5-fluorophenyl)-2-chloro-5-((1R,3R)-2,2-dichloro-3-(3-chloro-4-fluorophenyl)cyclopropane-1-carboxamido)benzamide]: the pest or weed control at 50 µg/cm2 in assay [1] and in assay [2] was 50 to 100% in each case. Also, the YFM rating result in assay [3] was “A (80-100)”.

Consider `O=C(Nc1ccc2[nH]ccc2c1)c1cc(NC(=O)C2C(c3cc(Cl)cc(Cl)c3)C2(Cl)Cl)ccc1Cl` (stereo not drawn) [F435, 2-Chloro-5-(trans)-2,2-dichloro-3-(3,5-dichlorophenyl)cyclopropane-1-carboxamido)-N-(1H-indol-5-yl)benzamide], for which the pest or weed control at 50 µg/cm2 in assay [1] and in assay [2] was 50 to 100% in each case. Besides, the YFM rating result in assay [3] is reported as “A (80-100)”.

`O=C(Nc1ccc2cccnc2c1)c1cc(NC(=O)C2C(c3cc(Cl)cc(Cl)c3)C2(Cl)Cl)ccc1Cl` (stereo not drawn) [F436, 2-Chloro-5-(trans)-2,2-dichloro-3-(3,5-dichlorophenyl)cyclopropane-1-carboxamido)-N-(quinolin-7-yl)benzamide]: the pest or weed control at 50 µg/cm2 in assay [1] and in assay [2] was 50 to 100% each time. Moreover, the YFM rating result in assay [3] was “B (More than 0-Less than 80)”.

Turning to `O=C(Nc1cnc2cc[nH]c2c1)c1cc(NC(=O)C2C(c3cc(Cl)cc(Cl)c3)C2(Cl)Cl)ccc1Cl` (stereo not drawn) [F437, 2-Chloro-5-(trans)-2,2-dichloro-3-(3,5-dichlorophenyl)cyclopropane-1-carboxamido)-N-(1H-pyrrolo[3,2-b]pyridin-6-yl)benzamide], the pest or weed control at 50 µg/cm2 in assay [1] and in assay [2] was 50 to 100% each time. The YFM rating entry in assay [3] is recorded as “B (More than 0-Less than 80)”.

Regarding `O=C(Nc1nc2ccccc2s1)c1cc(NC(=O)C2C(c3cc(Cl)cc(Cl)c3)C2(Cl)Cl)ccc1Cl` (stereo not drawn) [F441, N-(Benzo[d]thiazol-2-yl)-2-chloro-5-(trans)-2,2-dichloro-3-(3,5-dichlorophenyl)cyclopropane-1-carboxamido)benzamide], the pest or weed control at 50 µg/cm2 in assay [1] and in assay [2] was 50 to 100% in each case. Also, in assay [3], the YFM rating entry was “B (More than 0-Less than 80)”.

As for `O=C(Nc1nc2cc(F)ccc2s1)c1cc(NC(=O)C2C(c3cc(Cl)cc(Cl)c3)C2(Cl)Cl)ccc1Cl` (stereo not drawn) [F442, 2-Chloro-5-(trans)-2,2-dichloro-3-(3,5-dichlorophenyl)cyclopropane-1-carboxamido)-N-(5-fluorobenzo[d]thiazol-2-yl)benzamide], the pest or weed control at 50 µg/cm2 in assay [1] and in assay [2] was 50 to 100% each time. Further, in assay [3], the YFM rating result is “B (More than 0-Less than 80)”.

For `O=C(Nc1nc2c(Cl)cccc2s1)c1cc(NC(=O)C2C(c3cc(Cl)cc(Cl)c3)C2(Cl)Cl)ccc1Cl` (stereo not drawn) [F443, 2-Chloro-N-(4-chlorobenzo[d]thiazol-2-yl)-5-(trans)-2,2-dichloro-3-(3,5-dichlorophenyl)cyclopropane-1-carboxamido)benzamide], the pest or weed control at 50 µg/cm2 in assay [1] and in assay [2] was 50 to 100% each time. Moreover, the YFM rating result in assay [3] is given as “B (More than 0-Less than 80)”.
